# Measurements published in ChEMBL document CHEMBL1201862, “PubChem BioAssay data set” (2004).
# Active and inactive are the calls of the source.
# Key:
# [1] = biological target: Heat shock protein HSP 90-alpha (Homo sapiens, UniProt P07900); type: functional, organism-based
# [2] = biological target: Cytochrome P450 2D6 (Homo sapiens, UniProt P10635);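 note: CYP2D6 member of a cytochrome P450 panel assay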
# [3] = test system: HEK293; experiment: cells; conditions: Homo sapiens
# [4] = biological target: Tumor necrosis factor (Homo sapiens, UniProt P01375); experiment: analog potency on TNFa NF-kB signaling – cell-based, revised, SAR follow-up (AID 2337); type: functional
# [5] = biological target: T1, Nucleotide-binding oligomerization domain-containing protein 1 (Homo sapiens, UniProt Q9Y239); experiment: blockers of NOD1 pathway activity – revised, SAR follow-up (AID 2333); type: functional
# T1 sequence (Q9Y239 whole entry): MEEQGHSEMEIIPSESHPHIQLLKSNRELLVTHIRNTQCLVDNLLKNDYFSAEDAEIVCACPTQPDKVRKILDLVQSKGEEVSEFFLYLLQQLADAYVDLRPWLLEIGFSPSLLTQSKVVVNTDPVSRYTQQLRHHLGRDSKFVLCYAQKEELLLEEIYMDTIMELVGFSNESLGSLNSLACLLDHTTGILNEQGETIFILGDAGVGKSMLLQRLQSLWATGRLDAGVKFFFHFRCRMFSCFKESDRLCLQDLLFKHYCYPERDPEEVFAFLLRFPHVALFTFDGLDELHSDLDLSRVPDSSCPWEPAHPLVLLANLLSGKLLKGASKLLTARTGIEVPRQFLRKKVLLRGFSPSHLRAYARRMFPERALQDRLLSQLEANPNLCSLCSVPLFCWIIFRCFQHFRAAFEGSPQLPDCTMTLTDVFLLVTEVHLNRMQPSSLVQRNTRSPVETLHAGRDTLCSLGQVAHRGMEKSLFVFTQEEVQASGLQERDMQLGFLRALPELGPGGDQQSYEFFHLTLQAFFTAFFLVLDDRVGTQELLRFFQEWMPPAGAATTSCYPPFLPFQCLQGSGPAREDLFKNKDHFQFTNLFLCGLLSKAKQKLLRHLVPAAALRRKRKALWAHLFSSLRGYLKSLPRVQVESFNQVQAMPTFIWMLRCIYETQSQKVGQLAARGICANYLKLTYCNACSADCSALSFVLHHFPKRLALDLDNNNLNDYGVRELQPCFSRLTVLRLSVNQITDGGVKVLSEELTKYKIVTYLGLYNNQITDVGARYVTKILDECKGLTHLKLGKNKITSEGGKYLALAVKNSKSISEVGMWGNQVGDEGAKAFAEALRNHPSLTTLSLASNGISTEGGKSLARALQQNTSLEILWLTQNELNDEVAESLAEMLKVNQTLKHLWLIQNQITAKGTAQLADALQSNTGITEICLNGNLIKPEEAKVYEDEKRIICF
# [6] = test system: INS1; experiment: INS-1E survival protection against cytokine death – cell-based, luminescence, retest, dose response (AID 449756); type: functional; conditions: Rattus norvegicus;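 note: cell death triggered by IL-1 beta plus TNF-alpha plus IFN-gamma mixture; protective hits raise ATP signal compared with cytokine alone wells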
# [7] = test system: HEK293; experiment: NOD2 signaling inhibitors in MDP-stimulated cells, cell-based, uHTS, luminescence (AID 2001); type: functional; conditions: Homo sapiens
# [8] = test system: HEK293; experiment: inhibition of NOD1-driven NF-kB reporter – cell-based, luminescence, uHTS, primary screen (AID 1578); type: functional; conditions: Homo sapiens
# [9] = test system: HEK293; experiment: cells; type: functional, cell-based; conditions: Homo sapiens
# [10] = test system: HEK293; experiment: cells; type: functional, cell-based; conditions: Homo sapiens; remark: listed apart in the source
# [11] = HIV-1 Vif–A3G interaction blockers – biochemical, TR-FRET, GST-Vif 1-94, biotin-A3G peptide, dose response retest, primary screen (AID 1117319); type: functional;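 note: TR-FRET signal of purified GST-Vif binding a biotinylated A3G peptide; inhibitors lower the FRET signal by blocking Vif and A3G binding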
# [12] = biological target: Cytochrome P450 2C9 (Homo sapiens, UniProt P11712)
# [13] = biological target: Cytochrome P450 2C19 (Homo sapiens, UniProt P33261); experiment: Cytochrome panel assay with activity outcomes. Panel member name: p450-cyp2c19 Compounds with AC50 equal or less than 10 uM are considered active; type: functional; conditions: read-out: AC50
# [14] = biological target: Genome polyprotein (dengue virus type 2, UniProt P29990); experiment: flavivirus cap methylation enzyme inhibition – biochemical, confirmation dose response, primary screen (AID 588689); type: functional
# [15] = biological target: T2, Nuclear receptor subfamily 0 group B member 1 (Homo sapiens, UniProt P51843); experiment: Luminescence-based cell-based high throughput dose response assay for inhibitors of the orphan nuclear receptor subfamily 0, group B, member 1 (DAX1; NR0B1). [Related pubchem assays (depositor defined):AID504766, AID504790]; type: functional
# T2 sequence (P51843 whole entry): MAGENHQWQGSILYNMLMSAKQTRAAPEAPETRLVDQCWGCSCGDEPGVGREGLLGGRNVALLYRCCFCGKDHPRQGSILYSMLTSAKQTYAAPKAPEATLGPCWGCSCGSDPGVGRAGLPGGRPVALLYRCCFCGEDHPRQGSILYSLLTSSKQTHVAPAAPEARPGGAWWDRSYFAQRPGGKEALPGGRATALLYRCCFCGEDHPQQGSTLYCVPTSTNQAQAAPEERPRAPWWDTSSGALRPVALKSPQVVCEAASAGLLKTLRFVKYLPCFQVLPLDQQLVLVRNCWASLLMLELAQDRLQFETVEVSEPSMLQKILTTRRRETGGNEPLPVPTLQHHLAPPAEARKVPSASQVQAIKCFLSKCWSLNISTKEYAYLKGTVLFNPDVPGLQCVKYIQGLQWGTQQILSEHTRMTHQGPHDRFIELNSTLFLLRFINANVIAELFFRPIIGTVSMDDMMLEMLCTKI
# [16] = test system: HEK293; experiment: cells; type: functional, cell-based; conditions: Homo sapiens; remark: listed apart in the source
# [17] = biological target: T3, Protein RecA (Mycobacterium tuberculosis, UniProt P9WHJ3); experiment: Fluorescence Cell-Free Homogeneous Dose Retest to Identify Inhibitors of RecA-Intein Splicing Activity. [Related pubchem assays (depositor defined):AID2097, AID2223, AID489010, AID492950]; type: functional
# T3 sequence (P9WHJ3 whole entry): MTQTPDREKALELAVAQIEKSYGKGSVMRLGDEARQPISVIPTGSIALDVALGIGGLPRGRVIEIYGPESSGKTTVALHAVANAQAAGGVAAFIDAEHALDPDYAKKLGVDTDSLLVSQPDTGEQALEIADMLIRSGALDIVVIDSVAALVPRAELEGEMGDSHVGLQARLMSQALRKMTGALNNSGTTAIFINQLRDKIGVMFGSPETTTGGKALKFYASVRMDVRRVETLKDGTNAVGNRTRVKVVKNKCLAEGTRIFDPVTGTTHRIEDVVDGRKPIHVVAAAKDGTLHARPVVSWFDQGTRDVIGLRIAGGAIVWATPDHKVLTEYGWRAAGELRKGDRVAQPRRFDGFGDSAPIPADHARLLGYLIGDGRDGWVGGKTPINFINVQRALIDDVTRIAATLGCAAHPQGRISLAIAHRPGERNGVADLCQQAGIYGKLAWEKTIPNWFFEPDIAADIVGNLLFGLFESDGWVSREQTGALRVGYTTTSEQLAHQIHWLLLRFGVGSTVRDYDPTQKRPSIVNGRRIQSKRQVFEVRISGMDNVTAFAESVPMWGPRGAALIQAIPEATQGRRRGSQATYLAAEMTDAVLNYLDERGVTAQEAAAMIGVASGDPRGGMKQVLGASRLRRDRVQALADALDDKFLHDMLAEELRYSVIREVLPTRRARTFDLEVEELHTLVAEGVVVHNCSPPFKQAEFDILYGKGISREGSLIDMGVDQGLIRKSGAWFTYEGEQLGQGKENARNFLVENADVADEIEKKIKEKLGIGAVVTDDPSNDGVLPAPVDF
# [18] = biological target: T4, Replicative DNA helicase DnaB (Mycobacterium tuberculosis, UniProt P9WMR3); experiment: DnaB intein splicing inhibitors, dose response, biochemical, cell-free fluorescence (AID 449749); type: functional
# T4 sequence (P9WMR3 whole entry): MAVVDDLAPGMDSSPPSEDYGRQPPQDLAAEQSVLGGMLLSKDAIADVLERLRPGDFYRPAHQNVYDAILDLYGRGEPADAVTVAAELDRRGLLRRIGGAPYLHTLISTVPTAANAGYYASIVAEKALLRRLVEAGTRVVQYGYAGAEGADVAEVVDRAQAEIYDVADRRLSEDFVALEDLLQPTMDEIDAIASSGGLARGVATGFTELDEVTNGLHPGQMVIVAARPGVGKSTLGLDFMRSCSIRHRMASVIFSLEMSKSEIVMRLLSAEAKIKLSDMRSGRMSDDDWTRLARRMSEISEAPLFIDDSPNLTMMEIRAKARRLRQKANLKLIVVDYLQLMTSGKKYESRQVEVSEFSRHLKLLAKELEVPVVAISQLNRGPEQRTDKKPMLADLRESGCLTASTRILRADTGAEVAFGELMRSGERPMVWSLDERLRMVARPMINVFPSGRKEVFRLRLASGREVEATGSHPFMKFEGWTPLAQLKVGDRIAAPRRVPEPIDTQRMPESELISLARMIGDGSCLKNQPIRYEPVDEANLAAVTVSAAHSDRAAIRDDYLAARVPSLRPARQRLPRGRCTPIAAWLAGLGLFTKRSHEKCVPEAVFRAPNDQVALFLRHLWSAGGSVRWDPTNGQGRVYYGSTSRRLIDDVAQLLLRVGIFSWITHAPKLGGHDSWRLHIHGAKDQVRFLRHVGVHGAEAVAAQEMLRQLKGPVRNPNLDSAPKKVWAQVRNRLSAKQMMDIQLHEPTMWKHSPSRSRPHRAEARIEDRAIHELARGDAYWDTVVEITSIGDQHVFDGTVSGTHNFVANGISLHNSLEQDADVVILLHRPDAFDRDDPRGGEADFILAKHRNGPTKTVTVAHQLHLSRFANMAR
# [19] = non-specific 3'UTR reporter inhibition in Clone20-Shn3RL – cell-based, Renilla luciferase, cherry-picked, counter-screen for Shn3 inhibitor project, dose response (AID 624133); type: functional
# [20] = biological target: Paired box protein Pax-8 (Homo sapiens, UniProt Q06710); experiment: PAX8 transcriptional activity inhibition in RMG-I – RMG-I cells, luciferase, cherry-pick, dose response (AID 687027); type: functional, cell-based;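 note: luciferase reporter driven by Pax8 target thyroperoxidase promoter measured by SteadyGlo luminescence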
# [21] = loss of viability in HepG2 cells – cell-based, CellTiter-Glo, cherry-picked, cytotoxicity control for Shn3 inhibitor project, dose response (AID 624134); type: functional
# [22] = biological target: Photoreceptor-specific nuclear receptor (Homo sapiens, UniProt Q9Y5X4); type: functional, cell-based;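 note: CHO-S cells with Gal4-NCOR and VP16-NR2E3 two-hybrid luciferase reporter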
# [23] = reduction of Shn3 3'UTR-driven luciferase in osteoblasts – cell-based, Clone20 osteoblasts, firefly luciferase, cherry-picked, dose response (AID 624132); type: functional;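 note: firefly luciferase luminescence from reporter carrying the Shn3 3'UTR in osteoblasts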
# Sequence of Cytochrome P450 2D6 (P10635 whole entry): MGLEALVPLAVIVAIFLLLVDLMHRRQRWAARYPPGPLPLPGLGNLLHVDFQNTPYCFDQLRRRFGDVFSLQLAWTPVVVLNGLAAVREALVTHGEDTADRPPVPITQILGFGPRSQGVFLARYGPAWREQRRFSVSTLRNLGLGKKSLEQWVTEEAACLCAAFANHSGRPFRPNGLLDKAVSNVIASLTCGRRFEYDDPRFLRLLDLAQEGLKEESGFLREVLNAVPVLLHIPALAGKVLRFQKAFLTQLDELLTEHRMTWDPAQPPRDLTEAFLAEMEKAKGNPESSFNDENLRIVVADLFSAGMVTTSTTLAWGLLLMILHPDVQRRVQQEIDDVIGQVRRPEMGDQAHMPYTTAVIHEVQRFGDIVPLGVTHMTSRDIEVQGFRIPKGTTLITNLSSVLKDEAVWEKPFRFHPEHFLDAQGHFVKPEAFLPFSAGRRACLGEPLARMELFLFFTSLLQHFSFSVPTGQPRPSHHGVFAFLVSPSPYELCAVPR
# Sequence of Cytochrome P450 2C19 (P33261 whole entry): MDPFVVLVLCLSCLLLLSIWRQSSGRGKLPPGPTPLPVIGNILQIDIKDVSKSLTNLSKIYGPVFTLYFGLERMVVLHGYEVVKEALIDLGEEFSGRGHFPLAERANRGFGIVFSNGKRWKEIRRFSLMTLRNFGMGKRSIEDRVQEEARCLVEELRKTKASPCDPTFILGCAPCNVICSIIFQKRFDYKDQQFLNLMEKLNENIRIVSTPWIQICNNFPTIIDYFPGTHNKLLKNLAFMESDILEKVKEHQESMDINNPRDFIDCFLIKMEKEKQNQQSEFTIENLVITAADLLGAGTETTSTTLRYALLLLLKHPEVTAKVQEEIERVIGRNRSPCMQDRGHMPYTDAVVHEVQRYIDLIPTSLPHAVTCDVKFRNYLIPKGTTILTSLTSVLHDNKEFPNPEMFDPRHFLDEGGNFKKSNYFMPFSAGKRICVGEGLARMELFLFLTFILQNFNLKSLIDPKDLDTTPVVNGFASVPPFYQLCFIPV
# Sequence of Tumor necrosis factor (P01375 whole entry, the tested form may be a part): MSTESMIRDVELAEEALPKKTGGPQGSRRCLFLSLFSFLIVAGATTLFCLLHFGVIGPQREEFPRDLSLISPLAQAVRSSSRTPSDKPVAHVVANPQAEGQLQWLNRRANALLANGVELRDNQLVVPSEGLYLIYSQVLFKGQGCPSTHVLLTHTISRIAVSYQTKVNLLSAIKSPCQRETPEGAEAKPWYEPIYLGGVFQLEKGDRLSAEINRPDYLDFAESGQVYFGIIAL
# Sequence of Genome polyprotein (P29990 2492-3391 limits assumed): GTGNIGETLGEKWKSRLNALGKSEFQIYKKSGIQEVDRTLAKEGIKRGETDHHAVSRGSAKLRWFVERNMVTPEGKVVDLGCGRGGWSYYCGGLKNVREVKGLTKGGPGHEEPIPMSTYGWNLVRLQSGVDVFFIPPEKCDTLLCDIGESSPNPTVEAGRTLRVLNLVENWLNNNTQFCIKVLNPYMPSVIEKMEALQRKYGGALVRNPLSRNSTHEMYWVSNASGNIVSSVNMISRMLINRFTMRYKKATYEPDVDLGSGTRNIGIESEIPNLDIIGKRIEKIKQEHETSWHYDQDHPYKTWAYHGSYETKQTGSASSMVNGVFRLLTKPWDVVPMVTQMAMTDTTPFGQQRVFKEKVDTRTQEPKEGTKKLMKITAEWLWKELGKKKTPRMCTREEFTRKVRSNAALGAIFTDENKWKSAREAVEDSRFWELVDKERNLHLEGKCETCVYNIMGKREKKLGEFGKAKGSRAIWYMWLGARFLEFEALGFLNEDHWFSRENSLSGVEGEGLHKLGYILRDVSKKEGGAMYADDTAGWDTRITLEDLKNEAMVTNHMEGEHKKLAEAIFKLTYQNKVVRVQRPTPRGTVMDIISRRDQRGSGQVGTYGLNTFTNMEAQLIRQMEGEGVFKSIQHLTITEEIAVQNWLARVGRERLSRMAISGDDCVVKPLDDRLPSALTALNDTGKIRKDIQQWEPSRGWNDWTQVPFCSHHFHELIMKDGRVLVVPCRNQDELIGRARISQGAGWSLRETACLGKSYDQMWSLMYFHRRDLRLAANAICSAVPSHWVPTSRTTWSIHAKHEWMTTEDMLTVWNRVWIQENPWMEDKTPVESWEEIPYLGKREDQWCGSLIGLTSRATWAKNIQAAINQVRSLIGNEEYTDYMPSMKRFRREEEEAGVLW
# Sequence of Photoreceptor-specific nuclear receptor (Q9Y5X4 whole entry, the tested form may be a part): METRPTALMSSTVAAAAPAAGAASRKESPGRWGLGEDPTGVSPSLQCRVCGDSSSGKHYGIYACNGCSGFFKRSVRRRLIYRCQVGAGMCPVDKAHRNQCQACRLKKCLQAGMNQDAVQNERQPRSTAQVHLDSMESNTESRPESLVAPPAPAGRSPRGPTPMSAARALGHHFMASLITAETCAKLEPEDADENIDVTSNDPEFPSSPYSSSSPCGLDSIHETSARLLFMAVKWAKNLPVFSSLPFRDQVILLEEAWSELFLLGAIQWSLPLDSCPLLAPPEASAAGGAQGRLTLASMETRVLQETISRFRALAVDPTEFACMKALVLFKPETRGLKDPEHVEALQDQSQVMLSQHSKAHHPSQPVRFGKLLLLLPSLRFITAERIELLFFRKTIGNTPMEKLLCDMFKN
# Sequence of Paired box protein Pax-8 (Q06710 whole entry): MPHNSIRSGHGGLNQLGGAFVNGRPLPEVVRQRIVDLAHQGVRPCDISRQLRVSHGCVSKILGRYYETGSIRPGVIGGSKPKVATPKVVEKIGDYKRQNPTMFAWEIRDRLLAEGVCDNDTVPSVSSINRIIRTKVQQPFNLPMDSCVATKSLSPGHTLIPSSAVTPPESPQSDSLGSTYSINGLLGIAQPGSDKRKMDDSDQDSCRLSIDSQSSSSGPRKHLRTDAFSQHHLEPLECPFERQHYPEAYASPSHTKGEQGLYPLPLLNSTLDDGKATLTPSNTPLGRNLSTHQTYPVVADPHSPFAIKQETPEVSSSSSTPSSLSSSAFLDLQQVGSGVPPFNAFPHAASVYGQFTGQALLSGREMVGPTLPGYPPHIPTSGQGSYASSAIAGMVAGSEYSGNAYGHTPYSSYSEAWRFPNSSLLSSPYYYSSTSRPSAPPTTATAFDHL
# Sequence of Cytochrome P450 2C9 (P11712 whole entry): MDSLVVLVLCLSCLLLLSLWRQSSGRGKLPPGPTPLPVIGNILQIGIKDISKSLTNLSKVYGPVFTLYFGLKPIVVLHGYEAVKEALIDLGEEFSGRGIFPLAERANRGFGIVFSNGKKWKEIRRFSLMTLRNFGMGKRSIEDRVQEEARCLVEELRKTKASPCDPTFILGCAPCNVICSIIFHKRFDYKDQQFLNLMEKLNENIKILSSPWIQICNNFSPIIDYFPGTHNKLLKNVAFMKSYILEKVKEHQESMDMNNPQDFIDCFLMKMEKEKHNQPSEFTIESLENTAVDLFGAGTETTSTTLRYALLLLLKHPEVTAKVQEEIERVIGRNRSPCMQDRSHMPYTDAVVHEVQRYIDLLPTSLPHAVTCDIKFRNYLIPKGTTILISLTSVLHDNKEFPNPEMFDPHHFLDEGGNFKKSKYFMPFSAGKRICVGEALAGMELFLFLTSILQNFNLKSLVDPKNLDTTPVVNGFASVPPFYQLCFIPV
compound,measurement,setting,value
Nc1cccc(Oc2c(F)c(F)c(Oc3cccc(N)c3)c(F)c2F)c1,AC50,[1],7.55 µM (active)
COc1ccc(C(=O)Nc2ccc(NC(=O)c3ccco3)c(Cl)c2)cc1OC,AC50,[2],inconclusive
CCn1nc(C)cc1C(=O)NC1CCCc2c1cnn2-c1ccc(C)c(C)c1 (configuration not stated),IC50,[3],> 20 µM (inactive)
same,IC50,[4],4.43 µM (active)
same,IC50,[5],4.76 µM (active)
CN(C)S(=O)(=O)c1cccc(CSCc2cccc(S(=O)(=O)N(C)C)c2)c1,IC50,[3],> 20 µM (inactive)
same,AC50,[6],3.3 µM (active)
same,IC50,[7],5 µM (active)
same,EC50,[8],1.3 µM (active)
same,IC50,[9],> 20 µM (inactive)
same,IC50,[4],2.09 µM (active)
same,IC50,[10],3.06 µM (active)
same,IC50,[5],2.12 µM (active)
COc1ccc(NC(=O)C2CCCN2S(=O)(=O)c2cccc3cccnc23)c(OC)c1 (configuration not stated),IC50,[11],> 100 µM (active)
same,AC50,[1],1.49 µM (active)
Fc1nc(N2CCCC2)c(F)c(Oc2ccccc2Oc2c(F)c(F)nc(N3CCCC3)c2F)c1F,AC50,[12],1 µM (inconclusive)
same,AC50,[2],inconclusive
same,AC50,[13],5.62 µM (inconclusive)
CCCCN=C(S)NNC(=O)c1sccc1C,AC50,[2],inconclusive
Cc1ccc(/C=C2\SC(=S)N(NS(=O)(=O)c3ccc(C)cc3)C2=O)cc1,IC50,[14],25.9 µM (active)
O=C1C(=NO)CCc2ccccc21,IC50,[14],88.6 µM (active)
NCCCCC(=O)O [5-AMINOVALERIC ACID],AC50,[2],inconclusive
CCOC(=O)CSc1nnc(NC(=O)c2cccc(S(=O)(=O)N3CCCCCC3)c2)s1,AC50,[2],inconclusive
same,AC50,[13],2 µM (inconclusive)
CCOc1ccc(-c2nnc(-c3ccco3)o2)cc1OCC,IC50,[15],> 67.5 µM (inactive)
same,IC50,[16],> 67.5 µM (inactive)
Cc1ccc(OCC(=O)NC(=S)Nc2cccc(C)n2)cc1,IC50,[15],> 67.5 µM (inactive)
same,IC50,[16],> 67.5 µM (inactive)
N=C(Cc1ccc(Cl)cc1Cl)NOC(=O)c1cccs1,AC50,[1],3.59 µM (active)
CC(C)c1ccc(/C=C(\c2nc3ccccc3[nH]2)S(=O)(=O)c2ccccc2)cc1,EC50,[17],2.01 µM (active)
same,AC50,[18],2.09 µM (active)
same,AC50,[19],10.5 µM (active)
same,AC50,[20],5.15 µM (active)
same,AC50,[6],4.38 µM (active)
same,AC50,[21],18 µM (active)
same,IC50,[22],2.72 µM (active)
same,AC50,[23],4.01 µM (active)
